ChEMBL document CHEMBL6153025, “Multidrug-resistant bacteria quorum-sensing inhibitors: A particular focus on Pseudomonasaeruginosa” (Eur J Med Chem, 2025)

Test system: Pseudomonas aeruginosa
Assay: Antibacterial activity against Pseudomonas aeruginosa
Type: functional
Conditions: not given

Structure (SMILES) | MIC [µg/mL]
CCCCCCCCCCCC(=O)NN1C(=O)CN(c2ccccc2O)C1=O | > 512
O=C(CCCCCOc1ccc(Cl)cc1)NN1C(=O)CN(c2ccccc2O)C1=O | > 512
O=C(CCCCCOc1cccc(F)c1)NN1C(=O)CN(c2ccccc2O)C1=O | > 512

Test system: Bacillus subtilis
Assay: Antibacterial activity against Bacillus subtilis
Type: functional
Conditions: not given

Structure (SMILES) | MIC [µg/mL]
CCCCCCCCCCCC(=O)NN1C(=O)CN(c2ccccc2O)C1=O | > 512
O=C(CCCCCOc1ccc(Cl)cc1)NN1C(=O)CN(c2ccccc2O)C1=O | > 512
O=C(CCCCCOc1cccc(F)c1)NN1C(=O)CN(c2ccccc2O)C1=O | > 512

Test system: Pseudomonas aeruginosa
Assay: Anti-virulence activity against Pseudomonas aeruginosa PAO1-L assessed as reduction in pyocyanin production at 10 uM incubated for 24 hrs by absorbance based analysis relative to control
Type: functional
Design: scale not given: the % may be the effect or the level left
Conditions: not given

Structure (SMILES) | Activity [%]
CCCCSSc1nc2ccccc2c(=O)[nH]1 | 94
CCCCCCCCSSc1nc2ccc(Cl)cc2c(=O)n1-c1ccccc1 | 94
CCCCSSc1nc2ccc(Cl)cc2c(=O)n1-c1ccccc1 | 94
CCCCCCCCCc1nc2cc(Cl)ccc2c(=O)n1N | 46
CCCCCCSSc1nc2ccccc2c(=O)[nH]1 | 94
C=CCSSc1nc2ccccc2c(=O)n1-c1ccccc1 | 94
C=CCSSc1nc2ccc(Cl)cc2c(=O)n1-c1ccccc1 | 94
CCCCCCCCSSc1nc2ccccc2c(=O)n1C1CC1 | 94
CCCCSSc1nc2cccc(Cl)c2c(=O)n1-c1ccccc1 | 94
CCCCCCSSc1nc2ccc(Cl)cc2c(=O)n1-c1ccccc1 | 94
CCCCCCCCSSc1nc2ccccc2c(=O)n1-c1ccccc1 | 94
C=CCSSc1nc2ccccc2s1 | 46
CCCCSSc1nc2ccccc2c(=O)n1C1CC1 | 94
CCCCCCCCSSc1nc2cccc(Cl)c2c(=O)n1-c1ccccc1 | 94
CCCCCCSSc1nc2cccc(Cl)c2c(=O)n1-c1ccccc1 | 94
CCCCCCC1=NC(Cn2cnc3cc(Cl)ccc3c2=O)CS1 (stereo unspecified) | 46
CCCCCCSSc1nc2ccccc2c(=O)n1C1CC1 | 94
CCCCCCSSc1nc2ccccc2c(=O)n1-c1ccccc1 | 94
CCCCSSc1nc2ccccc2c(=O)n1-c1ccccc1 | 94

Test system: Pseudomonas aeruginosa
Assay: Antibacterial activity against Pseudomonas aeruginosa ATCC 15442 assessed as reduction in bacterial cell growth incubated for 24 hrs by two fold serial microdilution method
Type: functional
Conditions: not given

Structure (SMILES) | MIC [µM]
CC(C)NCCCCCCCCNc1ccnc2cc(Cl)ccc12 | > 2
[N-]=[N+]=Nc1ccc(CNCCCCCCCCNc2ccnc3cc(Cl)ccc23)cc1 | > 2
Clc1ccc2c(NCCCCCCCCNCCc3ccccc3)ccnc2c1 | > 2
Clc1ccc2c(NCCCCCCNCCc3ccccc3)ccnc2c1 | > 2
Clc1ccc2c(NCCCCCCNCc3ccccc3)ccnc2c1 | > 2
NCCCCCCCCCCCCNc1ccnc2cc(Cl)ccc12 | > 2
Clc1ccc2c(NCCCCCCCCCCCCNCc3ccccc3)ccnc2c1 | > 2
Clc1ccc(CNCCCCCCCCNc2ccnc3cc(Cl)ccc23)cc1 | > 2
Fc1cccc(CNCCCCCCCCNc2ccnc3cc(Cl)ccc23)c1 | > 2
NCCCCCCCCCCCCNc1ccnc2cc(C(F)(F)F)ccc12 | > 2
Clc1ccc2c(NCCCCCCCCNCc3ccccc3)ccnc2c1 | > 2
Fc1ccc(CNCCCCCCCCNc2ccnc3cc(Cl)ccc23)cc1 | > 2
CN(C)CCCCCCCCNc1ccnc2cc(Cl)ccc12 | > 2
Clc1ccc2c(NCCCCCCCCNCc3ccccc3Cl)ccnc2c1 | > 2
Clc1cccc(CNCCCCCCCCNc2ccnc3cc(Cl)ccc23)c1 | > 2

Test system: Staphylococcus aureus
Assay: Antibacterial activity against Methicillin-sensitive Staphylococcus aureus
Type: functional
Conditions: not given

Structure (SMILES) | MIC [µg/mL]
CCCCCCCCCCCC(=O)NN1C(=O)CN(c2ccccc2O)C1=O | > 512
O=C(CCCCCOc1ccc(Cl)cc1)NN1C(=O)CN(c2ccccc2O)C1=O | > 512
O=C(CCCCCOc1cccc(F)c1)NN1C(=O)CN(c2ccccc2O)C1=O | > 512

Test system: Pseudomonas aeruginosa
Assay: Anti-virulence effect in Pseudomonas aeruginosa PAO1 assessed as inhibition of rhamnolipid production at 10 uM relative to control
Type: functional
Design: scale not given: the % may be the effect or the level left
Conditions: not given

Structure (SMILES) | Activity [%]
O=C(CCCCCOc1ccc(C(F)(F)F)cc1)NNC(=O)Cn1c(=O)oc2ccccc21 | 2.53
CCCCCCCCC(=O)NNC(=O)Cn1c(=O)oc2ccccc21 | 6.34
Cc1ccc(OCCCCCC(=O)NNC(=O)Cn2c(=O)oc3ccccc32)cc1 | 2.53
O=C(CCCCCOc1cccc(C(F)(F)F)c1)NNC(=O)Cn1c(=O)oc2ccccc21 | 2.53
O=C(CCCCCOc1ccc(Cl)cc1)NN1C(=O)CN(c2ccccc2O)C1=O | 2.76
O=C(CCCCCOc1ccc(F)cc1)NNC(=O)Cn1c(=O)oc2ccccc21 | 2.53
O=C(CCCCCOc1cccc(F)c1)NN1C(=O)CN(c2ccccc2O)C1=O | 2.76

Test system: Pseudomonas aeruginosa
Assay: Antibiofilm activity against Pseudomonas aeruginosa PAO1 assessed as inhibition of biofilm formation at 32 ug/ml incubated for 8 hrs by crystal violet staining based assay relative to control
Type: functional
Design: scale not given: the % may be the effect or the level left
Conditions: dose 32 µg/ml

Structure (SMILES) | Activity [%]
[O-][S+](Cc1ccc2c(O)cccc2c1)c1nnc(-c2ccccc2)o1 (stereo unspecified) | 40.88
[O-][S+](Cc1ccc(Br)cc1)c1nnc(-c2ccccc2)o1 (stereo unspecified) | 21.94
Cc1ccc(C[S+]([O-])c2nnc(-c3ccccc3)o2)cc1 (stereo unspecified) | 40.6
[O-][S+](Cc1cccc(Cl)c1)c1nnc(-c2ccccc2)o1 (stereo unspecified) | 40.6
Clc1ccc(SSc2nc3ccccc3s2)cc1 | 40.6
[O-][S+](Cc1ccc2c(O)cccc2c1)c1nnn(-c2ccccc2)n1 (stereo unspecified) | 1.64
[O-][S+](Cc1ccc(F)cc1)c1nnc(-c2ccccc2)o1 (stereo unspecified) | 23.17
[O-][S+](Cc1ccccc1Cl)c1nnc(-c2ccccc2)o1 (stereo unspecified) | 40.6
COc1cc(C[S+]([O-])c2nnc(-c3ccccc3)o2)cc(OC)c1 (stereo unspecified) | 21.94
COc1cccc(C[S+]([O-])c2nnn(-c3ccccc3)n2)c1 (stereo unspecified) | 1.64
[O-][S+](Cc1ccccc1Cl)c1nnn(-c2ccccc2)n1 (stereo unspecified) | 1.64
Cc1ccc(C[S+]([O-])c2nnn(-c3ccccc3)n2)cc1 (stereo unspecified) | 1.64
[O-][S+](Cc1ccccc1)c1nnc(-c2ccccc2)o1 (stereo unspecified) | 40.6
[O-][S+](Cc1ccc(C(F)(F)F)cc1)c1nnc(-c2ccccc2)o1 (stereo unspecified) | 21.94
[O-][S+](Cc1ccccc1)c1nnn(-c2ccccc2)n1 (stereo unspecified) | 1.64
COc1cccc(C[S+]([O-])c2nnc(-c3ccccc3)o2)c1 (stereo unspecified) | 21.94
COc1ccc(C[S+]([O-])c2nnc(-c3ccccc3)o2)cc1 (stereo unspecified) | 21.94
[O-][S+](Cc1ccc(Br)cc1)c1nnn(-c2ccccc2)n1 (stereo unspecified) | 1.64
O=[N+]([O-])c1ccc(C[S+]([O-])c2nnn(-c3ccccc3)n2)cc1 (stereo unspecified) | 1.64
[O-][S+](Cc1ccc(Cl)cc1)c1nnn(-c2ccccc2)n1 (stereo unspecified) | 1.64
O=[N+]([O-])c1ccc(C[S+]([O-])c2nnc(-c3ccccc3)o2)cc1 (stereo unspecified) | 40.6
[O-][S+](Cc1cccc(Cl)c1)c1nnn(-c2ccccc2)n1 (stereo unspecified) | 1.64
[O-][S+](Cc1ccc(F)cc1)c1nnn(-c2ccccc2)n1 (stereo unspecified) | 1.64
[O-][S+](Cc1ccc(Cl)cc1)c1nc2ccccc2s1 (stereo unspecified) | 40.6
[O-][S+](Cc1ccc(C(F)(F)F)cc1)c1nnn(-c2ccccc2)n1 (stereo unspecified) | 1.64

Test system: Bacillus pumilus
Assay: Antibacterial activity against Bacillus pumilus
Type: functional
Conditions: not given

Structure (SMILES) | MIC [µg/mL]
CCCCCCCCCCCC(=O)NN1C(=O)CN(c2ccccc2O)C1=O | > 512
O=C(CCCCCOc1ccc(Cl)cc1)NN1C(=O)CN(c2ccccc2O)C1=O | > 512
O=C(CCCCCOc1cccc(F)c1)NN1C(=O)CN(c2ccccc2O)C1=O | > 512

Test system: Escherichia coli
Assay: Antibacterial activity against Escherichia coli
Type: functional
Conditions: not given

Structure (SMILES) | MIC [µg/mL]
CCCCCCCCCCCC(=O)NN1C(=O)CN(c2ccccc2O)C1=O | > 512
O=C(CCCCCOc1ccc(Cl)cc1)NN1C(=O)CN(c2ccccc2O)C1=O | > 512
O=C(CCCCCOc1cccc(F)c1)NN1C(=O)CN(c2ccccc2O)C1=O | > 512

Test system: not listed separately
Assay: Inhibition of quorum sensing system in Pseudomonas aeruginosa PAO1 expressing lasB-gfp
Conditions: not given

Structure (SMILES) | IC50 [nM]
O=c1c2ccc(Cl)cc2ncn1CC(O)COc1ccccc1 (stereo unspecified) | 600
O=c1c2cc([N+](=O)[O-])ccc2ncn1CC(O)COc1ccccc1 (stereo unspecified) | 600
O=c1c2cc(C(F)(F)F)ccc2ncn1CC(O)COc1ccccc1 (stereo unspecified) | 600
O=c1c2cc(Cl)c(Cl)cc2ncn1CC(O)COc1ccccc1 (stereo unspecified) | 600
N#CCc1ccc(NCC(O)Cn2cnc3ccc(Cl)cc3c2=O)cc1 (stereo unspecified) | 3200
O=c1c2c(Cl)cccc2ncn1CC(O)COc1ccccc1 (stereo unspecified) | 600
O=c1c2cccc(Cl)c2ncn1CC(O)COc1ccccc1 (stereo unspecified) | 600
O=c1c2cc(Br)ccc2ncn1CC(O)COc1ccccc1 (stereo unspecified) | 800
O=c1c2cc(Cl)cc(Cl)c2ncn1CC(O)COc1ccccc1 (stereo unspecified) | 600
N#CCc1ccc(OCC(O)Cn2cnc3ccc(Cl)cc3c2=O)cc1 (stereo unspecified) | 3200
